Consider five compounds from patent US20150362482A1 (priority 2013, published 2015).

Among the test systems are GABARA; iGluR; networked ESN cultures; ESNs.
Holding throughout (format): cell-based, mouse

In the case of `NCc1cc(=O)[nH]o1` [muscimol], in the assay with GABARA, the agonist-induced current result is given as “large desensitizing Cl-current”. With `N[C@@H](CCC(=O)O)C(=O)O` [glutamate], in the assay on iGluR, the agonist-induced current result is on record as “multiphasic inward current”. As to `NCCCC(=O)O` [GABA], in the assay with networked ESN cultures, the “effect on spontaneous network activity” value is on record as “silenced spontaneous network activity”.

As for `NC1=N[C@H](O)[C@H]2[C@H]3O[C@]4(O)O[C@@H]([C@@H](O)[C@@]2(N1)[C@@H]4O)[C@]3(O)CO` [TTX, tetrodotoxin], the excitatory post-synaptic currents entry in the assay on ESNs is given as “blocked”. On to `Nc1ccncc1N` [3,4-DAP, 3,4-diaminopyridine], for which the “network behaviour in simultaneous dual intracellular recordings” value with networked ESN cultures was “rapid transition to a synchronized bursting behavior”.
